Source: patent US20240050428A1 (Cullgen (Shanghai), Inc., priority 2020, published 2024)
Read-outs that look alike come from different tables or passages of the source.

What was measured:
MOLM-13 cells = assay: Cell viability assay (CellTiter-Glo) in MOLM-13 cells, alone or with gilteritinib; type: cell-based
MV4;11 cells = assay: Cell viability assay (CellTiter-Glo) in MV4;11 cells, alone or with gilteritinib; type: cell-based; conditions: read-out: MV4
[1] = Homo sapiens, MOLM-13, 72 h, MOLM-13 cells, with 20 nM gilteritinib, 3 days, CellTiter-Glo, read-out: MOLM-13 IC50 gilteritinib
[2] = Homo sapiens, MOLM-13, 72 h, MOLM-13 cells, without gilteritinib, 3 days, CellTiter-Glo, read-out: MOLM-13 IC50
[3] = Homo sapiens, MV4-11, 72 h, MV4;11 cells, with 10 nM gilteritinib, 3 days, CellTiter-Glo, 11 IC50 gilteritinib
[4] = Homo sapiens, MV4-11, 72 h, MV4;11 cells, without gilteritinib, 3 days, CellTiter-Glo, 11 IC50
[5] = Homo sapiens, MOLM-13, 72 h, read-out: MOLM-13 IC50
[6] = Homo sapiens, MOLM-13, 72 h, read-out: MOLM-13 IC50 gilteritinib
[7] = Homo sapiens, MV4-11, 72 h, 11 IC50
[8] = Homo sapiens, MV4-11, 72 h, 11 IC50 gilteritinib

With `O=C1CCC(N2C(=O)c3ccc(NCCCN4CC(N5CCN(c6ccccn6)CC5)C4)cc3C2=O)C(=O)N1` (stereo not drawn) the IC50 (MOLM-13 cells; Homo sapiens, 72 h, MOLM-13 cells, compound alone (without gilteritinib), three days, CellTiter-Glo, read-out: MOLM-13 IC50) was greater than 1000 nM, the IC50 (MOLM-13 cells; Homo sapiens, 72 h, MOLM-13 cells, with gilteritinib 20 nM, three days, CellTiter-Glo, read-out: MOLM-13 IC50 gilteritinib) was 10 to 100 nM and the IC50 (MV4;11 cells; Homo sapiens, 72 h, MV4;11 cells, compound alone (without gilteritinib), three days, CellTiter-Glo, 11 IC50) was greater than 1000 nM. It also gave an IC50 (MV4;11 cells; Homo sapiens, 72 h, MV4;11 cells, with gilteritinib 10 nM, three days, CellTiter-Glo, 11 IC50 gilteritinib) greater than 1000 nM.

`O=C1CCC(N2Cc3cc(CNC(=O)C(F)(F)c4ccc(Cl)cc4)ccc3C2=O)C(=O)N1` (stereo not drawn) [CC-90009, reference compound] gave an IC50 (MOLM-13 cells; MOLM-13 cells, with 20 nM gilteritinib, 3 days, CellTiter-Glo, read-out: MOLM-13 IC50 gilteritinib) of 8.6 nM, an IC50 (MOLM-13 cells; MOLM-13 cells, without gilteritinib, 3 days, CellTiter-Glo, read-out: MOLM-13 IC50) of 103 nM and an IC50 (MV4;11 cells; MV4;11 cells, with 10 nM gilteritinib, 3 days, CellTiter-Glo, 11 IC50 gilteritinib) of 7.1 nM. For the same molecule, the IC50 (MV4;11 cells; MV4;11 cells, without gilteritinib, 3 days, CellTiter-Glo, 11 IC50) was 54 nM.

Molecule `O=C1CCC(N2C(=O)c3ccc(NCCCCCC(=O)N4CCCCC4)cc3C2=O)C(=O)N1` (stereo not drawn) [GS-001, 2-(2,6-Dioxopiperidin-3-yl)-5-((6-oxo-6-(piperidin-1-yl)hexyl)amino)isoindoline-1,3-dione] has an IC50 (MOLM-13 cells; [1]) of 27 nM, an IC50 (MOLM-13 cells; [2]) of 301 nM and an IC50 (MV4;11 cells; [3]) greater than 10000 nM. The IC50 (MV4;11 cells; [4]) was 4740 nM.

In the case of `O=C1CCC(N2C(=O)c3ccc(NCCCCCC(=O)N4CCC(n5cccn5)CC4)cc3C2=O)C(=O)N1` (stereo not drawn) [GS-003, 5-((6-(4-(1H-Pyrazol-1-yl)piperidin-1-yl)-6-oxohexyl)amino)-2-(2,6-dioxopiperidin-3-yl)isoindoline-1,3-dione], the IC50 (MOLM-13 cells; [1]) is reported as 103 nM, the IC50 (MOLM-13 cells; [2]) is reported as greater than 10000 nM and the IC50 (MV4;11 cells; [3]) is reported as 191 nM. It also gave an IC50 (MV4;11 cells; [4]) greater than 10000 nM.

In the case of `O=C1CCC(N2Cc3cc(CNC(=O)C(F)(F)c4cccc(N5CCC(n6cc(-c7cnc8cccc(Br)c8n7)cn6)CC5)c4)ccc3C2=O)C(=O)N1` (stereo not drawn) [GS-004, 2-(3-(4-(4-(8-bromoquinoxalin-2-yl)-1H-pyrazol-1-yl)piperidin-1-yl)phenyl)-N-((2-(2,6-dioxopiperidin-3-yl)-1-oxoisoindolin-5-yl)methyl)-2,2-difluoroacetamide], the IC50 (MOLM-13 cells; [1]) is reported as 0.2 nM, the IC50 (MOLM-13 cells; [2]) is reported as 2.1 nM and the IC50 (MV4;11 cells; [3]) is reported as 0.5 nM. The IC50 (MV4;11 cells; [4]) was 1.3 nM.

In the case of `O=C1CCC(N2Cc3cc(CNC(=O)C(F)(F)CCC(=O)N4CCC(n5cc(-c6cnc7cccc(Br)c7n6)cn5)CC4)ccc3C2=O)C(=O)N1` (stereo not drawn) [GS-007, 5-(4-(4-(8-bromoquinoxalin-2-yl)-1H-pyrazol-1-yl)piperidin-1-yl)-N-((2-(2,6-dioxopiperidin-3-yl)-1-oxoisoindolin-5-yl)methyl)-2,2-difluoro-5-oxopentanamide], the IC50 (MOLM-13 cells; [1]) is reported as 32 nM, the IC50 (MOLM-13 cells; [2]) is reported as 179 nM and the IC50 (MV4;11 cells; [3]) is reported as 9.9 nM. The IC50 (MV4;11 cells; [4]) was 170 nM.

With `O=C1CCC(N2C(=O)c3ccc(NCCCCCC(=O)N4CCC(n5cc(C6CNc7ccccc7N6)cn5)CC4)cc3C2=O)C(=O)N1` (stereo not drawn) [GS-008, 2-(2,6-Dioxopiperidin-3-yl)-5-((6-oxo-6-(4-(4-(1,2,3,4-tetrahydroquinoxalin-2-yl)-1H-pyrazol-1-yl)piperidin-1-yl)hexyl)amino)isoindoline-1,3-dione] the IC50 (MOLM-13 cells; [1]) was 14 nM, the IC50 (MOLM-13 cells; [2]) was 78 nM and the IC50 (MV4;11 cells; [3]) was 27 nM. For the same molecule, the IC50 (MV4;11 cells; [4]) was 449 nM.

`O=C1CCC(N2C(=O)c3ccc(NCCCCCC(=O)N4CCC(n5cc(-c6cnccn6)cn5)CC4)cc3C2=O)C(=O)N1` (stereo not drawn) [GS-009, 2-(2,6-Dioxopiperidin-3-yl)-5-((6-oxo-6-(4-(4-(pyrazin-2-yl)-1H-pyrazol-1-yl)piperidin-1-yl)hexyl)amino)isoindoline-1,3-dione] gave an IC50 (MOLM-13 cells; [1]) of 18 nM, an IC50 (MOLM-13 cells; [2]) of 35 nM and an IC50 (MV4;11 cells; [3]) of 22 nM. For the same molecule, the IC50 (MV4;11 cells; [4]) was 296 nM.

In the case of `O=C1CCC(N2C(=O)c3ccc(NCCCCCC(=O)N4CCC(c5ccccc5)CC4)cc3C2=O)C(=O)N1` (stereo not drawn) [GS-010, 2-(2,6-Dioxopiperidin-3-yl)-5-((6-oxo-6-(4-phenylpiperidin-1-yl)hexyl)amino)isoindoline-1,3-dione], the IC50 (MOLM-13 cells; [5]) is reported as 3 nM, the IC50 (MOLM-13 cells; [6]) is reported as 0.3 nM and the IC50 (MV4;11 cells; [7]) is reported as 17 nM. The IC50 (MV4;11 cells; [8]) was 2.3 nM.

Work on `O=C1CCC(N2C(=O)c3ccc(NCCCCCC(=O)N4CCC(N5CCOCC5)CC4)cc3C2=O)C(=O)N1` (stereo not drawn) [GS-011, 2-(2,6-Dioxopiperidin-3-yl)-5-((6-(4-morpholinopiperidin-1-yl)-6-oxohexyl)amino)isoindoline-1,3-dione] yielded an IC50 (MOLM-13 cells; [1]) of 270 nM, an IC50 (MOLM-13 cells; [2]) greater than 10000 nM and an IC50 (MV4;11 cells; [3]) greater than 10000 nM. It also gave an IC50 (MV4;11 cells; [4]) greater than 10000 nM.

For `O=C1CCC(N2C(=O)c3ccc(NCCCCCC(=O)N4CCC(N5CCCCC5)CC4)cc3C2=O)C(=O)N1` (stereo not drawn) [GS-012, 5-((6-([1,4′-Bipiperidin]-1′-yl)-6-oxohexyl)amino)-2-(2,6-dioxopiperidin-3-yl)isoindoline-1,3-dione], the IC50 (MOLM-13 cells; [1]) was 312 nM, the IC50 (MOLM-13 cells; [2]) was greater than 10000 nM and the IC50 (MV4;11 cells; [3]) was greater than 10000 nM. The IC50 (MV4;11 cells; [4]) was greater than 10000 nM.

In the case of `CN1CCN(C2CCN(C(=O)CCCCCNc3ccc4c(c3)C(=O)N(C3CCC(=O)NC3=O)C4=O)CC2)CC1` (stereo not drawn) [GS-013, 2-(2,6-Dioxopiperidin-3-yl)-5-((6-(4-(4-methylpiperazin-1-yl)piperidin-1-yl)-6-oxohexyl)amino)isoindoline-1,3-dione], the IC50 (MOLM-13 cells; [1]) is reported as 1850 nM, the IC50 (MOLM-13 cells; [2]) is reported as greater than 10000 nM and the IC50 (MV4;11 cells; [3]) is reported as greater than 10000 nM. For the same molecule, the IC50 (MV4;11 cells; [4]) was greater than 10000 nM.

`O=C1CCC(N2C(=O)c3ccc(NCCCCCC(=O)N4CCC(c5ncccn5)CC4)cc3C2=O)C(=O)N1` (stereo not drawn) [GS-014, 2-(2,6-Dioxopiperidin-3-yl)-5-((6-oxo-6-(4-(pyrimidin-2-yl)piperidin-1-yl)hexyl)amino)isoindoline-1,3-dione] was tested, and the IC50 (MOLM-13 cells; [1]) was 10 nM, the IC50 (MOLM-13 cells; [2]) was 107 nM and the IC50 (MV4;11 cells; [3]) was 8.3 nM. The IC50 (MV4;11 cells; [4]) was 71 nM.

Molecule `O=C1CCC(N2C(=O)c3ccc(NCCCCCC(=O)N4CCC(N5CCC(c6cnc7ccccc7n6)C5)CC4)cc3C2=O)C(=O)N1` (stereo not drawn) [GS-015, 2-(2,6-Dioxopiperidin-3-yl)-5-((6-oxo-6-(4-(3-(quinoxalin-2-yl)pyrrolidin-1-yl)piperidin-1-yl)hexyl)amino)isoindoline-1,3-dione] has an IC50 (MOLM-13 cells; [1]) of 30 nM, an IC50 (MOLM-13 cells; [2]) greater than 10000 nM and an IC50 (MV4;11 cells; [3]) of 2780 nM. It also gave an IC50 (MV4;11 cells; [4]) greater than 10000 nM.

`Cc1ccccc1C(=O)N1CCN(C(=O)CCCCCNc2ccc3c(c2)C(=O)N(C2CCC(=O)NC2=O)C3=O)CC1` (stereo not drawn) [GS-016, 2-(2,6-Dioxopiperidin-3-yl)-5-((6-(4-(2-methylbenzoyl)piperazin-1-yl)-6-oxohexyl)amino)isoindoline-1,3-dione] gave an IC50 (MOLM-13 cells; [1]) of 86 nM, an IC50 (MOLM-13 cells; [2]) greater than 10000 nM and an IC50 (MV4;11 cells; [3]) greater than 10000 nM. For the same molecule, the IC50 (MV4;11 cells; [4]) was greater than 10000 nM.

With `O=C1CCC(N2C(=O)c3ccc(NCCCCCC(=O)N4CCC(c5ccccn5)CC4)cc3C2=O)C(=O)N1` (stereo not drawn) [GS-017, 2-(2,6-Dioxopiperidin-3-yl)-5-((6-oxo-6-(4-(pyridin-2-yl)piperidin-1-yl)hexyl)amino)isoindoline-1,3-dione] the IC50 (MOLM-13 cells; [1]) was 2 nM, the IC50 (MOLM-13 cells; [2]) was 30 nM and the IC50 (MV4;11 cells; [3]) was 2 nM. The IC50 (MV4;11 cells; [4]) was 20 nM.

Work on `O=C1CCC(N2Cc3cc(OCCOCCC(=O)N4CCC(n5cc(-c6cnc7cccc(Br)c7n6)cn5)CC4)ccc3C2=O)C(=O)N1` (stereo not drawn) [GS-018, 3-(5-(2-(3-(4-(4-(8-Bromoquinoxalin-2-yl)-1H-pyrazol-1-yl)piperidin-1-yl)-3-oxopropoxy)ethoxy)-1-oxoisoindolin-2-yl)piperidine-2,6-dione] yielded an IC50 (MOLM-13 cells; [1]) of 1.6 nM, an IC50 (MOLM-13 cells; [2]) of 15.6 nM and an IC50 (MV4;11 cells; [3]) of 0.9 nM. It also gave an IC50 (MV4;11 cells; [4]) of 8.7 nM.

In the case of `O=C1CCC(N2C(=O)c3ccc(NCCCCCC(=O)N4CCN(c5ccccn5)CC4)cc3C2=O)C(=O)N1` (stereo not drawn) [GS-019, 2-(2,6-Dioxopiperidin-3-yl)-5-((6-oxo-6-(4-(pyridin-2-yl)piperazin-1-yl)hexyl)amino)isoindoline-1,3-dione], the IC50 (MOLM-13 cells; [5]) is reported as 146 nM, the IC50 (MOLM-13 cells; [6]) is reported as 7 nM and the IC50 (MV4;11 cells; [7]) is reported as 162 nM. It also gave an IC50 (MV4;11 cells; [8]) of 9.4 nM.

With `O=C1CCC(N2Cc3cc(NC(=O)CCCCC(=O)N4CCC(n5cc(-c6cnc7cccc(Br)c7n6)cn5)CC4)ccc3C2=O)C(=O)N1` (stereo not drawn) [GS-020, 6-(4-(4-(8-Bromoquinoxalin-2-yl)-1H-pyrazol-1-yl)piperidin-1-yl)-N-(2-(2,6-dioxopiperidin-3-yl)-1-oxoisoindolin-5-yl)-6-oxohexanamide] the IC50 (MOLM-13 cells; [1]) was 11 nM, the IC50 (MOLM-13 cells; [2]) was 87 nM and the IC50 (MV4;11 cells; [3]) was 3 nM. For the same molecule, the IC50 (MV4;11 cells; [4]) was 29 nM.

`O=C(CCCC(=O)N1CCC(n2cc(-c3cnc4cccc(Br)c4n3)cn2)CC1)NCc1ccc2c(c1)CN(C1CCC(=O)NC1=O)C2=O` (stereo not drawn) [GS-021, 5-(4-(4-(8-Bromoquinoxalin-2-yl)-1H-pyrazol-1-yl)piperidin-1-yl)-N-((2-(2,6-dioxopiperidin-3-yl)-1-oxoisoindolin-5-yl)methyl)-5-oxopentanamide] showed an IC50 (MOLM-13 cells; [1]) of 111 nM, an IC50 (MOLM-13 cells; [2]) of 82 nM and an IC50 (MV4;11 cells; [3]) of 44 nM. It also gave an IC50 (MV4;11 cells; [4]) of 3130 nM.

With `O=C(COc1ccc2c(c1)CN(C1CCC(=O)NC1=O)C2=O)NCCC(=O)N1CCC(n2cc(-c3cnc4cccc(Br)c4n3)cn2)CC1` (stereo not drawn) [GS-022, N-(3-(4-(4-(8-bromoquinoxalin-2-yl)-1H-pyrazol-1-yl)piperidin-1-yl)-3-oxopropyl)-2-((2-(2,6-dioxopiperidin-3-yl)-1-oxoisoindolin-5-yl)oxy)acetamide] the IC50 (MOLM-13 cells; [1]) was 106 nM, the IC50 (MOLM-13 cells; [2]) was 875 nM and the IC50 (MV4;11 cells; [3]) was 60 nM. For the same molecule, the IC50 (MV4;11 cells; [4]) was 293 nM.
